# Paper doi:10.1101/2023.11.24.568596v1 (biorxiv, 2023)
# Columns and labels:
# Settings in all cases: binder
# AAK1 = AAK1 (Homo sapiens, UniProt Q2M2I8)
# CK2a2 = CK2a2 (Homo sapiens, UniProt P19784)
# CLK3 = CLK3 (Homo sapiens, UniProt P49761)
# DAPK1 = DAPK1 (Homo sapiens, UniProt P53355)
# EphB1 = target: T1, EphB1 (Homo sapiens, UniProt P54762)
# T1 sequence (P54762 1-984): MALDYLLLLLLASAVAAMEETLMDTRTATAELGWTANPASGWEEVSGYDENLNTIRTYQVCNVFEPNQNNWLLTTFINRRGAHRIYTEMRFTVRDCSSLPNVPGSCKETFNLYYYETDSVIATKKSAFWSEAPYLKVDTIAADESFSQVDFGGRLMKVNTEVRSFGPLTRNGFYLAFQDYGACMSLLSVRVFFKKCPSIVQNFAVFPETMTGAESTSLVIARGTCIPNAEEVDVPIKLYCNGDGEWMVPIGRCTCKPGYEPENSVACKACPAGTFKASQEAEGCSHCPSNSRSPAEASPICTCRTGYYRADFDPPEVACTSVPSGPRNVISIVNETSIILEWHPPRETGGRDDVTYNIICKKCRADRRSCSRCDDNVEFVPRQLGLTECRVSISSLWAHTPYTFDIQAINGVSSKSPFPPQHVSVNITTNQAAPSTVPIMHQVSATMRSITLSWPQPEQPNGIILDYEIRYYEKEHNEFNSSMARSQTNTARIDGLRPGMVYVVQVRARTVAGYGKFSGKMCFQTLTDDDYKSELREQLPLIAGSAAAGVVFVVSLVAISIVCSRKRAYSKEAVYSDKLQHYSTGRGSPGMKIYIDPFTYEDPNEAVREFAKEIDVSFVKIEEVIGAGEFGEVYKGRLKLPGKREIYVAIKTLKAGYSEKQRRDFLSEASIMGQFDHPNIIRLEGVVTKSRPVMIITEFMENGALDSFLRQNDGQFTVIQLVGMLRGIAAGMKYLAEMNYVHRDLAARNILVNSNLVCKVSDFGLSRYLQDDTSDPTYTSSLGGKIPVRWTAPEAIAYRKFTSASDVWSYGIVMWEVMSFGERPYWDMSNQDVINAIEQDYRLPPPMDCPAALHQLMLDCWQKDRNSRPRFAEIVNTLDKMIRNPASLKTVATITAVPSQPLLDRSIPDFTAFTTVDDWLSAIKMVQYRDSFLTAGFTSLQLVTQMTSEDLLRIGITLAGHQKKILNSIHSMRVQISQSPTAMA
# FECH = target: T2, FECH (Homo sapiens, UniProt P22830)
# T2 sequence (P22830 1-423): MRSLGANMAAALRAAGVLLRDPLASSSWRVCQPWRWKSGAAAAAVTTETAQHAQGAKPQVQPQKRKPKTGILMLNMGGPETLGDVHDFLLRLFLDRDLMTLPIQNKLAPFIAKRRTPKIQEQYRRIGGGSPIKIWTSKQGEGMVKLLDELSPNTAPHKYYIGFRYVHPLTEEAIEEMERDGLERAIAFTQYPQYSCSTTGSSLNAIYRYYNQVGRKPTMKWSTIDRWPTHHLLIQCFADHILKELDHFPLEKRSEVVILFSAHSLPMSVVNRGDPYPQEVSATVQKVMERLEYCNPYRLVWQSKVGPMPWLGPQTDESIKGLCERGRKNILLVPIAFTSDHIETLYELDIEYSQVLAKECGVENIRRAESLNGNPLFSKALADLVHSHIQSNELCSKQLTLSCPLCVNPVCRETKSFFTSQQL
# TLK1 = target: T3, TLK1 (Homo sapiens, UniProt Q9UKI8)
# T3 sequence (Q9UKI8 1-766): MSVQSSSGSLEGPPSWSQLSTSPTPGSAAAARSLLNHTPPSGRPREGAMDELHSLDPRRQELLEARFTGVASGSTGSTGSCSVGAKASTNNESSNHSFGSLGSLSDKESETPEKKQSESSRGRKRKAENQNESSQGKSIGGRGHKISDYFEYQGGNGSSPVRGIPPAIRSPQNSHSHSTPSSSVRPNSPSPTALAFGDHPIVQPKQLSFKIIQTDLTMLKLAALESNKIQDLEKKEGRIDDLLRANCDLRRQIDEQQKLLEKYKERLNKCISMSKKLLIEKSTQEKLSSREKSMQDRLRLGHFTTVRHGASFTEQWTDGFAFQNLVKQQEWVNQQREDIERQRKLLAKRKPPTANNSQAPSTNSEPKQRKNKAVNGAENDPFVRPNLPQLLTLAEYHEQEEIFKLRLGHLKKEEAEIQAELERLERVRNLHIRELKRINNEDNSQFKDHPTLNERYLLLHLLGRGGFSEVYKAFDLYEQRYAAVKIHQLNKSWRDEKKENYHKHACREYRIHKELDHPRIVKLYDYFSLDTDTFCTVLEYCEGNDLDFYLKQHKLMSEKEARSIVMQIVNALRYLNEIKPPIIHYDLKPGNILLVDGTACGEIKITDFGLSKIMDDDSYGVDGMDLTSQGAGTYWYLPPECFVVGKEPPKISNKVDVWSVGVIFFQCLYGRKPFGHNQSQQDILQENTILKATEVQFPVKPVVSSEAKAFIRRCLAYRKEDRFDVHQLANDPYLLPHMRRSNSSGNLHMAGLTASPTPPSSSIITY
# Sequence of AAK1 (Q2M2I8 whole entry): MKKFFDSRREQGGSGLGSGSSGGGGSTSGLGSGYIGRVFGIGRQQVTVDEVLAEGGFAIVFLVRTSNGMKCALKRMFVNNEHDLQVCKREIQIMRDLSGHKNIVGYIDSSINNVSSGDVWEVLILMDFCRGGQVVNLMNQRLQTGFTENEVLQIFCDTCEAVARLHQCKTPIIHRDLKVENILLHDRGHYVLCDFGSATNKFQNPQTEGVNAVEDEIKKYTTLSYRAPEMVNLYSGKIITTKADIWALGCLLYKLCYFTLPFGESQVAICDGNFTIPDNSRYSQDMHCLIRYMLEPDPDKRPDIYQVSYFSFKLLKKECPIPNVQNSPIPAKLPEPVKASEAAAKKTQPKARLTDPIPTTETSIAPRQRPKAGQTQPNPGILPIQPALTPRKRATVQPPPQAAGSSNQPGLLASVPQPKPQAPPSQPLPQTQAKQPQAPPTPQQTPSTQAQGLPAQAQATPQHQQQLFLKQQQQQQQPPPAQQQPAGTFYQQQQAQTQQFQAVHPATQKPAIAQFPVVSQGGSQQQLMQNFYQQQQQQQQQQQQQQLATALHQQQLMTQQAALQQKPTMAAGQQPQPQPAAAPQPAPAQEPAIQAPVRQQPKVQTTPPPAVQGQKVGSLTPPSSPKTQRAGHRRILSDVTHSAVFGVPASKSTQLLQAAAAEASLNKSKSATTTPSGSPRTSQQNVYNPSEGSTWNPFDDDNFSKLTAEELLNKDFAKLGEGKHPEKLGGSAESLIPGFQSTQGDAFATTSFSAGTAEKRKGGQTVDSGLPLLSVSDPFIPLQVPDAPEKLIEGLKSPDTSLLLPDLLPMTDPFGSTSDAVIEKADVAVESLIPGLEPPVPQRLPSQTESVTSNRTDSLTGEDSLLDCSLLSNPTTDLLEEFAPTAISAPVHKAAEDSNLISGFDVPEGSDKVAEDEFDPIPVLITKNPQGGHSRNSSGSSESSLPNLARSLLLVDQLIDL
# Sequence of DAPK1 (P53355 whole entry): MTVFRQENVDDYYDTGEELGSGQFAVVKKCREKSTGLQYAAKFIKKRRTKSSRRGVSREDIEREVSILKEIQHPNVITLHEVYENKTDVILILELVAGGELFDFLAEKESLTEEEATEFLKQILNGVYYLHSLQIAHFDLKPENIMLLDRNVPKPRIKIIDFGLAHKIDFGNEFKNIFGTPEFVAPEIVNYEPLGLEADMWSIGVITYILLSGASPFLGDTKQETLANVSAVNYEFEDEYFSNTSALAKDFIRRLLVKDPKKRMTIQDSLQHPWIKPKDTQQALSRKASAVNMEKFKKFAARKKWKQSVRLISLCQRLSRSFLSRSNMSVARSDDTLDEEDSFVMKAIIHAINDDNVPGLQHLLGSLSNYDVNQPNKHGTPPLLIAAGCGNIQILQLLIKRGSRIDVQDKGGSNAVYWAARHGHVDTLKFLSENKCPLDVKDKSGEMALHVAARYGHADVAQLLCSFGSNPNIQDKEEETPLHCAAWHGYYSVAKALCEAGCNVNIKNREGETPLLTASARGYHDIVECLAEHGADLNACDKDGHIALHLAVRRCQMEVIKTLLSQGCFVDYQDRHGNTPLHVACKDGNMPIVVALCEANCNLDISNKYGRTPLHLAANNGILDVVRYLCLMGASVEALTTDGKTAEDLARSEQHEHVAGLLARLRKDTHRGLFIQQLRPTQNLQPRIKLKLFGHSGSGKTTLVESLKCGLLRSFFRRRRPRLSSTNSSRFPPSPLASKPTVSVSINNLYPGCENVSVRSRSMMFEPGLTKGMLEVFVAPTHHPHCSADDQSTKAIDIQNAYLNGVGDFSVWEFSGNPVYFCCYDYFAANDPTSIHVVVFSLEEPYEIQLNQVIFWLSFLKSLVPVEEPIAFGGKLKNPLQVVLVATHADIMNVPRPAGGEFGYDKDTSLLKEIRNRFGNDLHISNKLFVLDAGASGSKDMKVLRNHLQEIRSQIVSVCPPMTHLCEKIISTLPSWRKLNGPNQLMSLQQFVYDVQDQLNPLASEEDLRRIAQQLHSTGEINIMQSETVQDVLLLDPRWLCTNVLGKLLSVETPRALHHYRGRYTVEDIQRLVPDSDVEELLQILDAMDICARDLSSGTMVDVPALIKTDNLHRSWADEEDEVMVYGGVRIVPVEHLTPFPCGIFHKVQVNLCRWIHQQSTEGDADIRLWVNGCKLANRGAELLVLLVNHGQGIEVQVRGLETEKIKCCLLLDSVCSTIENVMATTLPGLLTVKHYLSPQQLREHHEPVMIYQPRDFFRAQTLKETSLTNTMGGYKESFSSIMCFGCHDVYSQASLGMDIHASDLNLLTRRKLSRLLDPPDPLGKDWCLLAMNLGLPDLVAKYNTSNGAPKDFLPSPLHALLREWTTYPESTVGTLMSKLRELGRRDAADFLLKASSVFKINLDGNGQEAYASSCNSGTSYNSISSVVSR
# Sequence of CK2a2 (P19784 whole entry): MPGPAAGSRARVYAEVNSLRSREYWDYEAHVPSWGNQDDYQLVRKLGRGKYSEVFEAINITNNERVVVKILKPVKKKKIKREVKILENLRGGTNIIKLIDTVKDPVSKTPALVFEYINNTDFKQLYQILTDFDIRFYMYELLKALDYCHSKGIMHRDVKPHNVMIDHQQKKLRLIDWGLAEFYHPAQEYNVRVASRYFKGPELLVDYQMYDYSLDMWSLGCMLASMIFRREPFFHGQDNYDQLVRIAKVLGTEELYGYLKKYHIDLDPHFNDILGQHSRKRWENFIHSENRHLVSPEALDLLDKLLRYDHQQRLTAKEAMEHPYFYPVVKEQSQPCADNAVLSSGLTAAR
# Sequence of CLK3 (P49761 whole entry): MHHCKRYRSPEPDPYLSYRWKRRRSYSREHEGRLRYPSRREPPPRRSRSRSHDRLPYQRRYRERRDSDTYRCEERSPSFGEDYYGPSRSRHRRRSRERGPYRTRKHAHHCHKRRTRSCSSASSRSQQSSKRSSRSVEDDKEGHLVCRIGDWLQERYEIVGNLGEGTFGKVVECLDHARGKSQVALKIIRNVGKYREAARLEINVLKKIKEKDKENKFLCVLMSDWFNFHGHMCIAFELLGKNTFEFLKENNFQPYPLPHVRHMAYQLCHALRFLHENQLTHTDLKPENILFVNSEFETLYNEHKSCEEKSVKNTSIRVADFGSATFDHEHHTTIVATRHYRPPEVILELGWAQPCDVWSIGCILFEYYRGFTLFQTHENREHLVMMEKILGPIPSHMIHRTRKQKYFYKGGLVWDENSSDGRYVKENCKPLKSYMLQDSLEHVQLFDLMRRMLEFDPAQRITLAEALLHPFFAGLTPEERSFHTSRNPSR
compound,measurement,setting,value
"COc1cc(N2CCN(C)CC2)ccc1Nc1ncc2cc(-c3ccc(-c4cccc(C)n4)cc3Cl)c(=O)n(CCCCN)c2n1 [compound 36, 8-(4-Aminobutyl)-6-(2-chloro-4-(6-methylpyridin-2-yl)phenyl)-2-((2-methoxy-4-(4-methylpiperazin-1-yl)phenyl)amino)pyrido[2,3-d]pyrimidin-7(8H)-one]",dTm 36,AAK1,2.4 °C
same,dTm 36,CK2a2,-0.5 °C
same,dTm 36,CLK3,-0.7 °C
same,dTm 36,DAPK1,-1.2 °C
same,dTm 36,EphB1,5.5 °C
same,dTm 36,FECH,3.0 °C
same,dTm 36,TLK1,-1.9 °C
"COc1ccc(O)c(Nc2ncc3cc(-c4ccc(-c5cccc(C)n5)cc4Cl)c(=O)n(CCCCN)c3n2)c1 [compound 34, 8-(4-Aminobutyl)-6-(2-chloro-4-(6-methylpyridin-2-yl)phenyl)-2-((2-hydroxy-5-methoxy-phenyl)amino)pyrido[2,3-d]pyrimidin-7(8H)-one]",dTm 34,AAK1,1.4 °C
same,dTm 34,CK2a2,0.1 °C
same,dTm 34,CLK3,-1.0 °C
same,dTm 34,DAPK1,-0.8 °C
same,dTm 34,EphB1,5.2 °C
same,dTm 34,FECH,3.2 °C
same,dTm 34,TLK1,-1.1 °C
"COc1cc(N2CCOCC2)ccc1Nc1ncc2cc(-c3ccc(-c4cccc(C)n4)cc3Cl)c(=O)n(CCCCN)c2n1 [compound 35, 8-(4-Aminobutyl)-6-(2-chloro-4-(6-methylpyridin-2-yl)phenyl)-2-((2-methoxy-4-morpholino-phenyl)amino)pyrido[2,3-d]pyrimidin-7(8H)-one]",dTm 35,AAK1,3.0 °C
same,dTm 35,CK2a2,0.1 °C
same,dTm 35,CLK3,-1.3 °C
same,dTm 35,DAPK1,-2.1 °C
same,dTm 35,EphB1,6.0 °C
same,dTm 35,FECH,7.0 °C
same,dTm 35,TLK1,-2.5 °C
"Cc1cccc(-c2ccc(-c3cc4cnc(Nc5ccc(F)c(CO)c5)nc4n(CCCCN)c3=O)c(Cl)c2)n1 [compound 33, 8-(4-Aminobutyl)-6-(2-chloro-4-(6-methylpyridin-2-yl)phenyl)-2-((4-fluoro-3-(hydroxymethyl)phenyl)amino)pyrido[2,3-d]pyrimidin-7(8H)-one]",dTm 33,AAK1,4.1 °C
same,dTm 33,CK2a2,-1.2 °C
same,dTm 33,CLK3,-0.5 °C
same,dTm 33,DAPK1,-1.1 °C
same,dTm 33,EphB1,6.5 °C
same,dTm 33,FECH,-2.9 °C
same,dTm 33,TLK1,-0.8 °C
